From ChEMBL document CHEMBL4673377 (Bioorg Med Chem Lett, 2021) come the findings set out here.

Data set [1] concerns the target Kynurenine 3-monooxygenase (Mus musculus) (UniProt Q91WN4). In words: Inhibition of mouse liver mitochondrial KMO by measuring the 3-HK metabolite formation at 100 nM using L-kynurenine as substrate preincubated for 5 mins followed by substate addition and measured after 30 mins by LC-MS/MS analysis relative to control. The note with it: Mitochondria, time 35.0 min.

Data set [2] in a line: Permeability of compound at pH 7.4 by PAMPA assay. The format is ADME. The note with it: read-out: permeability.
Data set [3] concerns the target Kynurenine 3-monooxygenase (Mus musculus, UniProt Q91WN4).
Description: Inhibition of mouse liver mitochondrial KMO by measuring the 3-HK metabolite formation using L-kynurenine as substrate preincubated for 5 mins followed by substate addition and measured after 30 mins by LC-MS/MS analysis
Data set [4] relates to Mus musculus. In words: Effect on R6/2 mouse model of HD assessed as increase in latency to fall at 100 mg/kg, po administered twice daily for 11 weeks age starting from 5 weeks of age by rotarod test. Type of data set: functional, organism-based.
Data set [5] is described as follows: Drug uptake in mouse brain at 10 mg/kg, po after 1 hr. Type of data set: ADME, organism-based. The note with it: read-out: Drug uptake.
Data set [6] concerns Mus musculus. In words: Cognitive enhancing effect in R6/2 mouse model of HD assessed as increase in spontaneous alteration at 100 mg/kg, po administered twice daily for 12 weeks starting from 5 weeks of age by Y-maze test. Type of data set: functional, organism-based.
For data set [7], the system named is Mus musculus. In words: In vivo inhibition of KMO in R6/2 mouse model of HD assessed as decrease in 3-HK level in striatum at 100 mg/kg, po administered twice daily for 7 weeks starting from 5 weeks age. The format is functional, organism-based.
Data set [8] can be described thus: Plasma concentration in mouse at 10 mg/kg, po after 1 hr. Type of data set: ADME, organism-based.
The nature of data set [9]: in vivo. The note with it: mouse, brain/plasma, po, 10 mg/kg.
Description: Ratio of drug level in brain to plasma of mouse at 10 mg/kg, po after 1 hr
Data set [10] deals with T1, Kynurenine 3-monooxygenase (Homo sapiens, UniProt O15229).
Target sequence in this assay (O15229 whole entry): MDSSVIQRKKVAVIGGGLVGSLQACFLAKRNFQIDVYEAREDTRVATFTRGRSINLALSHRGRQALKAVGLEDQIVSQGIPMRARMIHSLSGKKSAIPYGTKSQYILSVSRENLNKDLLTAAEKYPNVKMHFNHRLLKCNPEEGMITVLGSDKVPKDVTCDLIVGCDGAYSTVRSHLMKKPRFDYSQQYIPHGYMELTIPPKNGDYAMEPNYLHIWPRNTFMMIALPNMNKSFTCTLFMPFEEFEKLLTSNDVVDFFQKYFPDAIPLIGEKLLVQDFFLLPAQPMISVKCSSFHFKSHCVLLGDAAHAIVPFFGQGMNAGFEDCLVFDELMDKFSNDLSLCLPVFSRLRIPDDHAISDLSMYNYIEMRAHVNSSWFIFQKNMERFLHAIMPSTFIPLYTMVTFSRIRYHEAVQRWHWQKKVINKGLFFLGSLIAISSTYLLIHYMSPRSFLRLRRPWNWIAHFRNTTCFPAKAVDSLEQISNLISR
Description: Inhibition of KMO (unknown origin)
Data set [11] deals with T1, Kynurenine 3-monooxygenase. In words: Inhibition of human liver mitochondrial KMO at by measuring the 3-HK metabolite formation at 100 nM using L-kynurenine as substrate preincubated for 5 mins followed by substate addition and measured after 30 mins by LC-MS/MS analysis relative to control. The note with it: Mitochondria, time 35.0 min.
Target sequence in this assay (O15229 whole entry, looked up): as the sequence (O15229 whole entry) above

What is called inhibition is how much of the control response was suppressed. A word on the pIC50: it is the negative decadic logarithm of the IC50, by convention in mol/L. High values mean a small IC50, low ones a large IC50. As usually defined, the Kp is tissue or fluid exposure divided by exposure in the circulation.

SMILES strings stand for the structures. pIC50: −log10 of the molar value. Active and inactive are the calls of the source. The rule behind the calls is not given here.

Kynurenine 3-monooxygenase (Mus musculus, UniProt Q91WN4), sequence (Q91WN4 whole entry): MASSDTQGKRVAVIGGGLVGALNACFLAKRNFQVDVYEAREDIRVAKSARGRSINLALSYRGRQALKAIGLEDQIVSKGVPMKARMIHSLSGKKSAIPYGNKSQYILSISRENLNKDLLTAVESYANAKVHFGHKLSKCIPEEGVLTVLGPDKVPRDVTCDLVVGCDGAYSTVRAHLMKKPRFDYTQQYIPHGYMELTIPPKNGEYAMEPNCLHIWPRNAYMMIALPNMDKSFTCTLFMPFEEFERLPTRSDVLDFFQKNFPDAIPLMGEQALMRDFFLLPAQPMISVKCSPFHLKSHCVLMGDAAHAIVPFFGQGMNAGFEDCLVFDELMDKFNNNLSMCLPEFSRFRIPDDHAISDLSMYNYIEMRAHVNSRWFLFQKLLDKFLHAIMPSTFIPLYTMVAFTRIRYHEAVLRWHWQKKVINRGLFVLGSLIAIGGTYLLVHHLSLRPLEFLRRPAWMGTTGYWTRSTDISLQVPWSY
Kynurenine 3-monooxygenase (Mus musculus), sequence (Q91WN4 whole entry, looked up): as the sequence (Q91WN4 whole entry) above

For the compound `O=S(=O)(Nc1ccc(-c2cccc(Cl)c2)nn1)c1ccccn1`, the inhibition in data set [1] was determined as 16%.
With `Cc1ccc(S(=O)(=O)Nc2ccc(-c3cccc4c3N(C)CC4)nn2)cc1`, the Papp in data set [2] turned out to be 38.5 ×10⁻⁶ cm/s. Further, in [3], the pIC50 is 7.77.
Consider `Cc1ccc(S(=O)(=O)Nc2ccc(-c3ccccc3N3CCCCC3)nn2)cc1`, for which the Papp in data set [2] worked out at 50.6 ×10⁻⁶ cm/s. For the same compound, the result in data set [4], in data set [6] and in data set [7] was Active. The concentration at 1 h in [5] amounted to 230 ng/g; in data set [8] it was 808 ng/mL. The same compound had a Kp at 1 h in data set [9] of 0.282.
As to `Cc1ccc(S(=O)(=O)Nc2ccc(-c3cccc(N(C)C)c3)nn2)cc1`, the Papp in [2] turned out to be 32.4 ×10⁻⁶ cm/s. For the same compound, the pIC50 in data set [3] was 7.08.
Regarding `Cc1ccc(S(=O)(=O)Nc2ccc(-c3ccc(N(C)C)cc3)nn2)cc1`, the pIC50 in data set [3] was 6.26.
As for `Cc1ccc(S(=O)(=O)Nc2ccc(-c3cccc4ccncc34)nn2)cc1`, the Papp in data set [2] is 22.4 ×10⁻⁶ cm/s. Further, the pIC50 in [3] is 7.33.
As for `COc1ccccc1-c1ccc(NS(=O)(=O)c2ccc(C)cc2)nn1`, the Papp in data set [2] worked out at 34.7 ×10⁻⁶ cm/s. Besides, the concentration at 1 h turned out to be 131 ng/g in data set [5] and 2520 ng/mL in data set [8]. The compound also gave a pIC50 in data set [3] of 7.44. This compound came in with a concentration ratio (Kp) at 1 h in data set [9] of 0.052.
In [10], `O=C(O)C1CC1C(=O)c1ccc(Cl)c(Cl)c1` (centres undefined) had a pIC50 of 7.40.
Consider `Cc1ccc(S(=O)(=O)Nc2ccc(-c3cccc4ccn(C)c34)nn2)cc1`, for which, in data set [2], the Papp was 49.2 ×10⁻⁶ cm/s. The compound also gave a pIC50 in data set [3] of 7.54.
With `CN(C)c1cccc(S(=O)(=O)Nc2ccc(-c3ccccc3N3CCCC3)nn2)c1`, the Papp in [2] stood at 31.2 ×10⁻⁶ cm/s. Moreover, the figures for the concentration at 1 h in data set [5] and in data set [8] were 137 ng/g and 879 ng/mL, respectively. Moreover, the pIC50 in data set [3] was 8.48. Also, the Kp at 1 h in [9] came to 0.162.
For the compound `O=C(O)c1cc(-c2ccc(Cl)c(OC3CC3)c2)ncn1`, the Papp in data set [2] stood at 6.5 ×10⁻⁶ cm/s. Moreover, the concentration at 1 h in data set [5] came to 177 ng/g; in [8], 49100 ng/mL. Also, the pIC50 in [3] was 8.06. In data set [9], the Kp at 1 h worked out at 0.004.
`O=S(=O)(Nc1ccc(-c2cccc(Cl)c2)nn1)c1cccnc1`: the inhibition in [1] came to 31%.
On to `CN(C)c1ccccc1S(=O)(=O)Nc1ccc(-c2cccc(Cl)c2)nn1`, for which the Papp in [2] was found to be 35.7 ×10⁻⁶ cm/s. Also, the pIC50 in [3] was 6.93.
The matching figures for `CN(C)c1cccc(S(=O)(=O)Nc2ccc(-c3cccc(Cl)c3)nn2)c1`: 42.5 ×10⁻⁶ cm/s and 7.50.
The matching figures for `Cc1cccc(S(=O)(=O)Nc2ccc(-c3cccc(Cl)c3)nn2)c1`: 40.2 ×10⁻⁶ cm/s and 7.00.
With `CN(C)c1ccc(S(=O)(=O)Nc2ccc(-c3cccc(Cl)c3)nn2)cc1`, the pIC50 in [3] was 6.40.
Same read-out and setting: with `CCc1ccccc1-c1ccc(NS(=O)(=O)c2ccc(C)cc2)nn1` the figure was 7.53.
Regarding `Cc1ccc(S(=O)(=O)Nc2ccc(-c3ccccc3N3CCCC3)nn2)cc1`, the Papp in data set [2] came out at 43.5 ×10⁻⁶ cm/s. Moreover, the concentration at 1 h in data set [5] came to 51 ng/g; in data set [8] it was 215 ng/mL. In data set [3], the pIC50 is 8.77. The compound further displayed a Kp at 1 h in [9] of 0.235.
For `Cc1ccc(S(=O)(=O)Nc2ccc(-c3ccccc3N3CCOCC3)nn2)cc1`, in that order: 44.3 ×10⁻⁶ cm/s, 69 ng/g, 931 ng/mL, 8.41 and 0.076.
The matching figures for `Cc1ccc(S(=O)(=O)Nc2ccc(-c3ccccc3N(C)C)nn2)cc1`: 35.7 ×10⁻⁶ cm/s, 25 ng/g, 185 ng/mL, 8.35 and 0.136.
Take `Cc1ccc(S(=O)(=O)Nc2ccc(-c3ccccc3N3CCN(C)CC3)nn2)cc1`: the pIC50 in data set [3] was under 7.00.
In the case of `Cc1ccc(S(=O)(=O)Nc2ccc(-c3cccc4cccnc34)nn2)cc1`, the Papp in data set [2] worked out at 44.1 ×10⁻⁶ cm/s. Further, the concentration at 1 h in [5] stood at 2910 ng/g; in [8] it was 27900 ng/mL. In addition, the pIC50 in data set [3] was 8.06. The Kp at 1 h in [9] amounted to 0.104. Moreover, the inhibition in data set [11] worked out at 36%.
